Measurements published in patent US20200288710A1, “SUBSTITUTED SULPHONAMIDES FOR CONTROLLING ANIMAL PESTS” (BAYER CROPSCIENCE AKTIENGESELLSCHAFT, priority 2016, published 2020).

What was measured:
Type in all cases: in vivo
Meloidogyne incognita = Meloidogyne incognita test; conditions: 336 h, lettuce, after 14 days, read-out: nematicidal efficacy (formation of galls)
Method: Meloidogyne incognita Test Solvent: 125.0 parts by weight of acetone To produce a suitable active compound preparation, 1 part by weight of active compound is mixed with the stated amount of solvent and the concentrate is diluted with water to the desired concentration. Vessels are filled with sand, active compound solution, an egg/larvae suspension of the southern rootknot nematode (Meloidogyne incognita) and lettuce seeds. The lettuce seeds germinate and the plants develop. The galls develop on the roots. After 14 days, the nematicidal efficacy in % is determined by the formation of galls. 100% means that no galls were found; 0% means that the number of galls on the treated plants corresponds to the untreated control.

Myzus persicae [1] = experiment: Myzus persicae oral test; conditions: 120 h, 20 ppm, oral uptake, after 5 days, read-out: efficacy
Method: Myzus persicae—Oral Test Solvent: 100 parts by weight of acetone To produce a suitable preparation of active compound, 1 part by weight of active compound is dissolved using the specified parts by weight of solvent and made up with water until the desired concentration is attained. 50 μl of the active compound preparation are transferred into microtitre plates and made up to a final volume of 200 μl with 150 μl of IPL41 insect medium (33%+15% sugar). Subsequently, the plates are sealed with parafilm, which a mixed population of green peach aphids (Myzus persicae) within a second microtitre plate is able to puncture and imbibe the solution through it. After 5 days, the efficacy in % is determined. 100% means that all the aphids have been killed; 0% means that no aphids have been killed.

Myzus persicae [2] = experiment: Myzus persicae spray test (Chinese cabbage leaf discs); conditions: foliar, 120 h, 500 g/ha, after 5-6 days, read-out: efficacy
Method: Myzus persicae—Spray Test Solvent: 78 parts by weight of acetone • • 1.5 parts by weight of dimethylformamide Emulsifier: alkylaryl polyglycol ether To produce a suitable preparation of active compound, 1 part by weight of active compound is dissolved using the specified parts by weight of solvent and made up with water containing an emulsifier concentration of 1000 ppm until the desired concentration is attained. To produce further test concentrations, the formulation is diluted with emulsifier-containing water. Discs of Chinese cabbage leaves (Brassica pekinensis) infested by all stages of the green peach aphid (Myzus persicae) are sprayed with an active compound preparation of the desired concentration. After 5-6 days, the efficacy in % is determined. 100% means that all the aphids have been killed; 0% means that no aphids have been killed.

Row | SMILES | pest or weed control at 20 ppm (Meloidogyne incognita) [%] | pest or weed control at 20 ppm (Myzus persicae [1]) [%] | pest or weed control at 500 g/ha (Myzus persicae [2]) [%]
1 | Cn1cc(C(=O)NS(=O)(=O)c2c(Cl)cccc2Cl)nc1-c1c(F)cc(F)cc1F [Example 4] | 90 |  | 
2 | Cc1ccccc1-c1nc(C(=O)NS(=O)(=O)c2ccccc2)cn1C [Example 50] | 90 |  | 
3 | CC(C)S(=O)(=O)NC(=O)c1cn(C)c(-c2c(F)cccc2F)n1 [Example 85] | 90 |  | 
4 | CCc1[nH]c(-c2cccc(Cl)c2)nc1C(=O)NS(=O)(=O)c1ccccc1C [Example 129] | 90 |  | 
5 | COc1ccc(Cl)c(S(=O)(=O)NC(=O)c2c(Cl)nc(-c3ccccc3Cl)n2C)c1 [Example 203] | 100 |  | 
6 | Cc1[nH]c(-c2ccc(Cl)cc2)nc1C(=O)NS(=O)(=O)c1ccccc1Cl [Example 232] | 90 |  | 
7 | CCc1[nH]c(-c2ccccc2Cl)nc1C(=O)NS(=O)(=O)c1ccccc1Cl [Example 243] | 90 |  | 
8 | CCc1[nH]c(-c2ccc(F)cc2F)nc1C(=O)NS(=O)(=O)c1cc(OC)ccc1Cl [Example 244] | 90 |  | 
9 | CCc1[nH]c(-c2c(F)cccc2F)nc1C(=O)NS(=O)(=O)c1cc(OC)ccc1Cl [Example 246] | 90 |  | 
10 | CCNc1ccccc1S(=O)(=O)NC(=O)c1cn(C)c(-c2ccccc2Cl)n1 [Example 251] | 90 |  | 
11 | CC(C)Nc1ccccc1S(=O)(=O)NC(=O)c1cn(C)c(-c2ccccc2Cl)n1 [Example 253] | 90 |  | 
12 | CCc1[nH]c(-c2cc(Cl)cc(Cl)c2)nc1C(=O)NS(=O)(=O)c1ccccc1Cl [Example 254] | 90 |  | 
13 | CCc1ccccc1S(=O)(=O)NC(=O)c1cc(C)n(-c2ncccc2Br)n1 [Example 298] |  | 100 | 100
14 | COc1ccc(Cl)c(S(=O)(=O)NC(=O)c2cc(C)n(-c3ncccc3Br)n2)c1 [Example 301] |  | 90 | 100
15 | CCc1cccc(OS(C)(=O)=O)c1S(=O)(=O)NC(=O)c1cn(C)c(-c2c(F)cccc2F)n1 [Example 342] |  | 100 | 100
16 | Cc1cccc([N+](=O)[O-])c1S(=O)(=O)NC(=O)c1cn(C)c(-c2c(F)cccc2F)n1 [Example 367] |  | 100 | 90
17 | COc1cccc(F)c1S(=O)(=O)NC(=O)c1cn(C)c(-c2c(F)cccc2F)n1 [Example 381] |  | 100 | 100
18 | COc1cccc(S(=O)(=O)NC(=O)c2cn(C)c(-c3c(F)cccc3F)n2)c1 [Example 388] |  | 100 | 90
19 | COc1ccc([N+](=O)[O-])c(S(=O)(=O)NC(=O)c2cn(C)c(-c3c(F)cccc3F)n2)c1 [Example 389] |  | 100 | 90
20 | COc1ccc(C)cc1S(=O)(=O)NC(=O)c1cn(C)c(-c2c(F)cccc2F)n1 [Example 390] |  | 100 | 100
21 | Cn1cc(C(=O)NS(=O)(=O)c2c(F)cccc2Br)nc1-c1c(F)cccc1F [Example 432] |  | 100 | 100
22 | COc1ccc(Cl)c(C)c1S(=O)(=O)NC(=O)c1cn(C)c(-c2c(F)cccc2F)n1 [Example 433] |  | 100 | 90
23 | COc1cc(C)ccc1S(=O)(=O)NC(=O)c1cn(C)c(-c2c(F)cccc2F)n1 [Example 447] |  | 100 | 90
24 | Cc1ccc(F)c(S(=O)(=O)NC(=O)c2cn(C)c(-c3c(F)cccc3F)n2)c1 [Example 454] |  | 100 | 90
25 | Cn1cc(C(=O)NS(=O)(=O)c2ccccc2Cl)nc1-c1ccccc1OC(F)(F)F [Example 459] |  | 100 | 90
26 | COc1ccc(OC)c(S(=O)(=O)NC(=O)c2cn(C)c(-c3cccc(Cl)c3Cl)n2)c1 [Example 462] |  | 90 | 90
27 | COc1ccc(F)cc1S(=O)(=O)NC(=O)c1cn(C)c(-c2cccc(Cl)c2Cl)n1 [Example 463] |  | 100 | 100

Row | SMILES | pest or weed control at 20 ppm (Meloidogyne incognita) [%] | pest or weed control at 20 ppm (Myzus persicae [1]) [%] | pest or weed control at 500 g/ha (Myzus persicae [2]) [%]
28 | Cn1cc(C(=O)NS(=O)(=O)c2ccccc2Cl)nc1-c1ccccc1S(C)(=O)=O [Example 483] |  | 100 | 90
29 | Cn1cc(C(=O)NS(=O)(=O)c2ccccc2Cl)nc1-c1cccnc1Cl [Example 490] |  | 100 | 90
30 | Cc1ccccc1S(=O)(=O)NC(=O)c1cn(C)c(-c2cccnc2Cl)n1 [Example 491] |  | 100 | 100
31 | COc1ccccc1S(=O)(=O)NC(=O)c1cn(C)c(-c2cccnc2Cl)n1 [Example 492] |  | 100 | 100
32 | Cn1cc(C(=O)NS(=O)(=O)c2ccccc2Cl)nc1-c1c(F)cccc1C#N [Example 501] |  | 100 | 100
33 | Cn1cc(C(=O)NS(=O)(=O)c2ccccc2Cl)nc1-c1ccccc1[N+](=O)[O-] [Example 524] |  | 100 | 90
34 | COc1ccccc1S(=O)(=O)NC(=O)c1cn(C)c(-c2sccc2Cl)n1 [Example 549] |  | 100 | 100
35 | COc1ccc(Br)cc1S(=O)(=O)NC(=O)c1cn(C)c(-c2cccc(Cl)c2Cl)n1 [Example 559] |  | 100 | 100
36 | Cc1ccc(F)cc1S(=O)(=O)NC(=O)c1cn(C)c(-c2ncccc2F)n1 [Example 562] |  | 100 | 100
37 | Cc1cccc(C(F)(F)F)c1S(=O)(=O)NC(=O)c1cn(C)c(-c2ncccc2F)n1 [Example 563] |  | 100 | 100
38 | Cn1cc(C(=O)NS(=O)(=O)c2ccccc2Br)nc1-c1ncccc1F [Example 564] |  | 100 | 100
39 | COc1ccc(C)c(S(=O)(=O)NC(=O)c2cn(C)c(-c3cccnc3Cl)n2)c1 [Example 565] |  | 100 | 100
40 | Cc1ccc(F)cc1S(=O)(=O)NC(=O)c1cn(C)c(-c2cccnc2Cl)n1 [Example 566] |  | 100 | 100
41 | CCn1cc(C(=O)NS(=O)(=O)c2ccccc2OC)nc1-c1c(F)cccc1F [Example 569] |  | 100 | 100
42 | CCn1cc(C(=O)NS(=O)(=O)c2ccccc2C)nc1-c1c(F)cccc1F [Example 570] |  | 100 | 100
43 | CCn1cc(C(=O)NS(=O)(=O)c2ccccc2Cl)nc1-c1c(F)cccc1F [Example 571] |  | 100 | 100
44 | COc1ccccc1S(=O)(=O)NC(=O)c1cn(C)c(-c2ncccc2Cl)n1 [Example 574] |  | 100 | 100
45 | Cn1cc(C(=O)NS(=O)(=O)c2ccccc2Cl)nc1-c1ncccc1Br [Example 578] |  | 100 | 100
46 | Cn1cc(C(=O)NS(=O)(=O)c2ccccc2Br)nc1-c1ncccc1Cl [Example 585] |  | 100 | 100
47 | Cn1cc(C(=O)NS(=O)(=O)c2c(Cl)cccc2Br)nc1-c1ncccc1Cl [Example 589] |  | 100 | 100
48 | COc1ccc(F)cc1S(=O)(=O)NC(=O)c1cn(C)c(-c2ncccc2Cl)n1 [Example 591] |  | 100 | 100
49 | Cc1ccsc1S(=O)(=O)NC(=O)c1cn(C)c(-c2ncccc2Cl)n1 [Example 592] |  | 100 | 100
50 | COc1ccc(OC)c(S(=O)(=O)NC(=O)c2cn(C)c(-c3ncccc3Cl)n2)c1 [Example 598] |  | 100 | 90
51 | CCc1ccsc1S(=O)(=O)NC(=O)c1cn(C)c(-c2ncccc2F)n1 [Example 604] |  | 90 | 90
52 | COc1ccc(Br)c(S(=O)(=O)NC(=O)c2cn(C)c(-c3ncccc3F)n2)c1 [Example 607] |  | 100 | 90
53 | Cn1cc(C(=O)NS(=O)(=O)c2c(Cl)cccc2C(F)(F)F)nc1-c1ncccc1F [Example 609] |  | 100 | 90
